In patent publication US20240360082A1, “SUBSTITUTED PYRIDONE COMPOUNDS USEFUL TO TREAT ORTH[…]” (priority 2021, published 2024):

Target: influenza A virus minigenome (PB2, PB1, PA, NP proteins) (UniProt P04665)
Assay type: cell-based
Settings: read-out: RNP_ Hubei B IC50

influenza A virus minigenome (PB2, PB1, PA, NP proteins), sequence (P04665 whole entry): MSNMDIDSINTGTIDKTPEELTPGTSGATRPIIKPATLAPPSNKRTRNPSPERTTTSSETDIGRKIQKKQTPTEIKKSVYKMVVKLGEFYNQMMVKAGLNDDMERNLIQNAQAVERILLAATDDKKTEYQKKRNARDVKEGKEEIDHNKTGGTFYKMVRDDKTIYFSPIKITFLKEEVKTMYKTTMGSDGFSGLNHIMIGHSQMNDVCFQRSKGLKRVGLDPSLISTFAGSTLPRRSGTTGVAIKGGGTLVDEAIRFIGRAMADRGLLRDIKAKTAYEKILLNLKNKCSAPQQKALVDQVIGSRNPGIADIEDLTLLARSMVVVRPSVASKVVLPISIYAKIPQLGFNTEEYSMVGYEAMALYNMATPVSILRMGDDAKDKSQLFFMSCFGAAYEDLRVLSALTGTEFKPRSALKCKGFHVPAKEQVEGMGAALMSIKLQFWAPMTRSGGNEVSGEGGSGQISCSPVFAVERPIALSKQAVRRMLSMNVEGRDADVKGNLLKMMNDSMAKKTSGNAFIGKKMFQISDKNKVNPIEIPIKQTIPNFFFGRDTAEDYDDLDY

SMILES	IC50 [µM]
NC(=O)c1cc(-c2ccc(OCC3COCC(C4CCCC4)O3)cc2)c(C(F)(F)F)[nH]c1=O (racemic) [Example 333, 5-(4-((6-cyclopentyl-1,4-dioxan-2-yl)methoxy)phenyl)-2-oxo-6-(trifluoromethyl)-1,2-dihydropyridine-3-carboxamide]	1 to 5
NC(=O)c1cc(-c2ccc(OCC3COC4(CC4)CO3)cc2)c(C(F)(F)F)[nH]c1=O (racemic) [Example 338, 5-(4-((4,7-dioxaspiro[2.5]octan-6-yl)methoxy)phenyl)-2-oxo-6-(trifluoromethyl)-1,2-dihydropyridine-3-carboxamide]	10 to 25
NC(=O)c1cc(-c2ccc(OCC3COCCO3)cc2)c(C(F)(F)F)[nH]c1=O (single isomer, unassigned) [Example 237, 5-(4-((1,4-dioxan-2-yl)methoxy)phenyl)-2-oxo-6-(trifluoromethyl)-1,2-dihydropyridine-3-carboxamide]	25 to 50
NC(=O)c1cc(-c2ccc(OCC3COCCO3)cc2)c(C(F)(F)F)[nH]c1=O (single isomer, unassigned) [Example 238, 5-(4-((1,4-dioxan-2-yl)methoxy)phenyl)-2-oxo-6-(trifluoromethyl)-1,2-dihydropyridine-3-carboxamide]	25 to 50
Cn1ncc2c1COCC2COc1ccc(-c2cc(C(N)=O)c(=O)[nH]c2C(F)(F)F)cc1 (single isomer, unassigned) [Example 289, 5-(4-((1-methyl-1,4,5,7-tetrahydropyrano[3,4-c]pyrazol-4-yl)methoxy)phenyl)-2-oxo-6-(trifluoromethyl)-1,2-dihydropyridine-3-carboxamide]	5 to 10
Cn1ncc2c1COCC2COc1ccc(-c2cc(C(N)=O)c(=O)[nH]c2C(F)(F)F)cc1 (single isomer, unassigned) [Example 290, 5-(4-((1-methyl-1,4,5,7-tetrahydropyrano[3,4-c]pyrazol-4-yl)methoxy)phenyl)-2-oxo-6-(trifluoromethyl)-1,2-dihydropyridine-3-carboxamide]	5 to 10
CC(C)n1ncc2c1COCC2COc1ccc(-c2cc(C(N)=O)c(=O)[nH]c2C(F)(F)F)cc1 (single isomer, unassigned) [Example 293, 5-(4-((1-isopropyl-1,4,5,7-tetrahydropyrano[3,4-c]pyrazol-4-yl)methoxy)phenyl)-2-oxo-6-(trifluoromethyl)-1,2-dihydropyridine-3-carboxamide]	5 to 10
CC(C)n1ncc2c1COCC2COc1ccc(-c2cc(C(N)=O)c(=O)[nH]c2C(F)(F)F)cc1 (single isomer, unassigned) [Example 294, 5-(4-((1-isopropyl-1,4,5,7-tetrahydropyrano[3,4-c]pyrazol-4-yl)methoxy)phenyl)-2-oxo-6-(trifluoromethyl)-1,2-dihydropyridine-3-carboxamide]	5 to 10
CC(C)n1cc2c(n1)COCC2COc1ccc(-c2cc(C(N)=O)c(=O)[nH]c2C(F)(F)F)cc1 (single isomer, unassigned) [Example 295, 5-(4-((2-isopropyl-2,4,5,7-tetrahydropyrano[3,4-c]pyrazol-4-yl)methoxy)phenyl)-2-oxo-6-(trifluoromethyl)-1,2-dihydropyridine-3-carboxamide]	5 to 10
CC(C)n1cc2c(n1)COCC2COc1ccc(-c2cc(C(N)=O)c(=O)[nH]c2C(F)(F)F)cc1 (single isomer, unassigned) [Example 296, 5-(4-((2-isopropyl-2,4,5,7-tetrahydropyrano[3,4-c]pyrazol-4-yl)methoxy)phenyl)-2-oxo-6-(trifluoromethyl)-1,2-dihydropyridine-3-carboxamide]	5 to 10
NC(=O)c1cc(-c2ccc(OCC3C[C@@H]4CC[C@H]3O4)cc2)c(C(F)(F)F)[nH]c1=O (single isomer, unassigned) [Example 312, 5-(4-((7-oxabicyclo[2.2.1]heptan-2-yl)methoxy)phenyl)-2-oxo-6-(trifluoromethyl)-1,2-dihydropyridine-3-carboxamide]	5 to 10
NC(=O)c1cc(-c2ccc(OCC3C[C@@H]4CC[C@H]3O4)cc2)c(C(F)(F)F)[nH]c1=O (single isomer, unassigned) [Example 313, 5-(4-((7-oxabicyclo[2.2.1]heptan-2-yl)methoxy)phenyl)-2-oxo-6-(trifluoromethyl)-1,2-dihydropyridine-3-carboxamide]	10 to 25
NC(=O)c1cc(-c2ccc(OCC3C[C@@H]4CC[C@H]3O4)cc2)c(C(F)(F)F)[nH]c1=O (single isomer, unassigned) [Example 314, 5-(4-((7-oxabicyclo[2.2.1]heptan-2-yl)methoxy)phenyl)-2-oxo-6-(trifluoromethyl)-1,2-dihydropyridine-3-carboxamide]	10 to 25
NC(=O)c1cc(-c2ccc(OCC3C[C@@H]4CC[C@H]3O4)cc2)c(C(F)(F)F)[nH]c1=O (single isomer, unassigned) [Example 315, 5-(4-((7-oxabicyclo[2.2.1]heptan-2-yl)methoxy)phenyl)-2-oxo-6-(trifluoromethyl)-1,2-dihydropyridine-3-carboxamide]	10 to 25
NC(=O)c1cc(-c2ccc(OCC3OCC4CCC3O4)cc2)c(C(F)(F)F)[nH]c1=O (single isomer, unassigned) [Example 318, 5-(4-((3,8-dioxabicyclo[3.2.1]octan-2-yl)methoxy)phenyl)-2-oxo-6-(trifluoromethyl)-1,2-dihydropyridine-3-carboxamide]	5 to 10
NC(=O)c1cc(-c2ccc(OCC3OCC4CCC3O4)cc2)c(C(F)(F)F)[nH]c1=O (single isomer, unassigned) [Example 319, 5-(4-((3,8-dioxabicyclo[3.2.1]octan-2-yl)methoxy)phenyl)-2-oxo-6-(trifluoromethyl)-1,2-dihydropyridine-3-carboxamide]	5 to 10
CC1COC(COc2ccc(-c3cc(C(N)=O)c(=O)[nH]c3C(F)(F)F)cc2)CO1 (single isomer, unassigned) [Example 322, 5-(4-((5-methyl-1,4-dioxan-2-yl)methoxy)phenyl)-2-oxo-6-(trifluoromethyl)-1,2-dihydropyridine-3-carboxamide]	25 to 50
CC1COC(COc2ccc(-c3cc(C(N)=O)c(=O)[nH]c3C(F)(F)F)cc2)CO1 (single isomer, unassigned) [Example 323, 5-(4-((5-methyl-1,4-dioxan-2-yl)methoxy)phenyl)-2-oxo-6-(trifluoromethyl)-1,2-dihydropyridine-3-carboxamide]	10 to 25
NC(=O)c1cc(-c2ccc(OCC3COCC4(CC4)O3)cc2)c(C(F)(F)F)[nH]c1=O (single isomer, unassigned) [Example 335, (4-(4,7-dioxaspiro[2.5]octan-5-ylmethoxy)phenyl)-2-oxo-6-(trifluoromethyl)-1,2-dihydropyridine-3-carboxamide]	5 to 10

Same assay, conditions: read-out: RNP_Hubei B

SMILES	IC50 [µM]
CC(Oc1ccc(-c2cc(C(N)=O)c(=O)[nH]c2C(F)(F)F)cc1)c1cccnc1 (single isomer, unassigned) [Example 80, (R or S)-2-oxo-5-(4-(1-(pyridin-3-yl)ethoxy)phenyl)-6-(trifluoromethyl)-1,2-dihydropyridine-3-carboxamide]	10 to 25
CC(Oc1ccc(-c2cc(C(N)=O)c(=O)[nH]c2C(F)(F)F)cc1)c1cccnc1 (single isomer, unassigned) [Example 81, (R or S)-2-oxo-5-(4-(1-(pyridin-3-yl)ethoxy)phenyl)-6-(trifluoromethyl)-1,2-dihydropyridine-3-carboxamide]	10 to 25
CC(Oc1ccc(-c2cc(C(N)=O)c(=O)[nH]c2C(F)(F)F)cc1)c1cncnc1 (single isomer, unassigned) [Example 95, (R or S)-2-oxo-5-(4-(1-(pyrimidin-5-yl)ethoxy)phenyl)-6-(trifluoromethyl)-1,2-dihydropyridine-3-carboxamide]	25 to 50
CC(Oc1ccc(-c2cc(C(N)=O)c(=O)[nH]c2C(F)(F)F)cc1)c1cncnc1 (single isomer, unassigned) [Example 96, (R or S)-2-oxo-5-(4-(1-(pyrimidin-5-yl)ethoxy)phenyl)-6-(trifluoromethyl)-1,2-dihydropyridine-3-carboxamide]	25 to 50
CC(Oc1ccc(-c2cc(C(N)=O)c(=O)[nH]c2C(F)(F)F)cc1)c1cccc(C#N)c1 (single isomer, unassigned) [Example 97, (R or S)-5-(4-(1-(3-cyanophenyl)ethoxy)phenyl)-2-oxo-6-(trifluoromethyl)-1,2-dihydropyridine-3-carboxamide]	25 to 50
CC(Oc1ccc(-c2cc(C(N)=O)c(=O)[nH]c2C(F)(F)F)cc1)c1cccc(C#N)c1 (single isomer, unassigned) [Example 98, (R or S)-5-(4-(1-(3-cyanophenyl)ethoxy)phenyl)-2-oxo-6-(trifluoromethyl)-1,2-dihydropyridine-3-carboxamide]	1 to 5
CC(Oc1ccc(-c2cc(C(N)=O)c(=O)[nH]c2C(F)(F)F)cc1)c1ccc2nonc2c1 (single isomer, unassigned) [Example 100, (R or S)-5-(4-(1-(benzo[c][1,2,5]oxadiazol-5-yl)ethoxy)phenyl)-2-oxo-6-(trifluoromethyl)-1,2-dihydropyridine-3-carboxamide]	5 to 10
COC1CCOC(COc2ccc(-c3cc(C(N)=O)c(=O)[nH]c3C(F)(F)F)cc2)C1 (single isomer, unassigned) [Example 202, 5-(4-((4-methoxytetrahydro-2H-pyran-2-yl)methoxy)phenyl)-2-oxo-6-(trifluoromethyl)-1,2-dihydropyridine-3-carboxamide]	10 to 25
COC1CCOC(COc2ccc(-c3cc(C(N)=O)c(=O)[nH]c3C(F)(F)F)cc2)C1 (single isomer, unassigned) [Example 203, 5-(4-((4-methoxytetrahydro-2H-pyran-2-yl)methoxy)phenyl)-2-oxo-6-(trifluoromethyl)-1,2-dihydropyridine-3-carboxamide]	25 to 50
NC(=O)c1cc(-c2ccc(OCC3OCC4CCC3O4)cc2)c(C(F)(F)F)[nH]c1=O (single isomer, unassigned) [Example 317, 5-(4-((3,8-dioxabicyclo[3.2.1]octan-2-yl)methoxy)phenyl)-2-oxo-6-(trifluoromethyl)-1,2-dihydropyridine-3-carboxamide]	5 to 10
